From patent US20070196902A1, “Method of detecting AZT resistance in HIV” (University of Pittsburgh, priority 2006, published 2007)
Read-outs that look alike come from different tables or passages of the source.

Tests used:
[1] = test system: HIV-1 RT A360I with "classic" TAMs; conditions: A360I present with "classic" TAMs; cited from earlier work
HIV-1 RT D549N = conditions: D549N mutation; cited from earlier work
[2] = test system: wild-type HIV-1LAI passaged in MT-2 cells in increasing concentrations of AZT; experiment: AZT susceptibility of virus passaged in increasing AZT, selection starting with wild-type HIV-1LAI; single-cycle assay in P4/R5 cells; assay type: cell-based; conditions: for Fold-Resistance: compared to wild-type passaged without AZT
Procedure: (§1) Selection of AZT-resistant viruses. Resistant virus was selected in two independent experiments by the passage of wild-type HIVLAI or HIVLAI containing the M41L/L210W/T215Y mutations (AZT^R HIVLAI) in MT-2 cells in increasing concentrations of AZT. To initiate each selection experiment, MT-2 cells (1×10^6) were pretreated for two hours with 0.5 μM and 25 μM AZT for wild-type HIVLAI and AZT^R HIVLAI, respectively, before virus was added. Viral replication was monitored by CPE. At +3/4 CPE (3 or 4 syncytia per field at 100× magnified field), cell-free supernatant was harvested and 0.1 ml of supernatant was added to fresh MT-2 cells to initiate a new passage. The concentration of AZT was doubled every three passages. The selection pressure was increased from an initial AZT concentration of 0.5 μM to a final concentration of 32 μM for wild-type HIVLAI, and from 25 μM to 150 μM for the AZT^R HIVLAI. The concentration of drug required to inhibit viral replication by 50% (IC50) was calculated every five passages to identify changes in AZT susceptibility, and fold-resistance was determined by dividing the IC50 of the mutant virus by the IC50 of wild-type HIV-1LAI. The genotype of the passaged virus was determined as described above.
(§2) Drug susceptibility assays. NRTI susceptibility was determined in P4/R5 cells as described previously (Parikh, U. M., et al. 2005. Antimicrob. Agents Chemother. 49:1139-44). Briefly, threefold dilutions of inhibitor were added to P4/R5 cells in triplicate and cells were infected with an amount of virus that produced 100 relative units of light (RLU) in no drug, virus control wells. After 48 hours, the cells were lysed (Gal-Screen; Tropix/Applied Biosystems, Foster City, Calif.) and the RLU was measured using a ThermoLabSystems luminometer (Waltham, Mass.). The IC50 and fold-resistance were calculated as described above. IC50 values from at least three independent experiments were log10 transformed and compared for statistically significant differences using the two-sample Student's t test.
(§3) Selection of AZT-resistant virus. Two independent AZT selection experiments were conducted. One starting with wild-type HIV-1LAI and the second starting with AZT HIV-1LAI (encoding M41L/L210W/T215Y). Both viruses were serially passaged in MT-2 cells in increasing concentrations of AZT. After every 5 passages, AZT susceptibility was measured in a single-cycle viral replication assay in P4/R5 cells (described in Materials and Methods). Viral RNA was extracted, converted to cDNA and the entire coding region of RT (residues 1-560) was PCR amplified and sequenced to monitor the appearance of mutations. In the selection experiment starting with HIV-1LAI, AZT susceptibility was reduced 66-fold by passage 35 and two polymerase domain TAMs were identified: D67N and K70R (Table 1).

[3] = test system: HIVLAI RT 67N/70R/215F/509L; experiment: Drug susceptibility assay in P4/R5 cells, site-directed mutant; assay type: cell-based, HIV-1
Wild-type HIVLAI = experiment: Drug susceptibility assay in P4/R5 cells, recombinant virus; assay type: cell-based, HIV-1; conditions: Human immunodeficiency virus 1, P4/R5; Wild-type; mean ± SD, at least three experiments; read-out: IC50
Procedure: as §2
Construction of mutant recombinant HIV-1. Mutant recombinant plasmid clones of virus were generated by oligonucleotide site-directed mutagenesis as described previously (Shi, C., and J. W. Mellors. 1997. A recombinant retroviral system for rapid […] analysis of human immunodeficiency virus type 1 susceptibility to reverse transcriptase inhibitors. Antimicrob. Agents Chemother. 41:2781-5), using the p6HRT-MO plasmid. p6HRT-MO contains the entire RT and protease coding sequence as previously described (Le Grice, S. F., and F. Gruninger-Leitch. 1990. Rapid purification of homodimer and heterodimer HIV-1 reverse transcriptase by metal chelate affinity chromatography. Eur. J. Biochem. 187:307-14) and four silent restriction sites (Xma I, Mlu I, Xba I, and NgoM IV from the 5′ to 3′ end of RT at codons 14, 358, 490 and 554, respectively). After site-directed mutagenesis (QIAamp kit, QIAGEN, Valencia, Calif.), the mutated RT was ligated into pxxHIV-1LAI MO that contains the entire genome of HIV-1LAI and the same silent restriction sites as p6HRT-MO. Infectious virus was generated by electroporating the mutated xxHIV-1LAI MO plasmid into MT-2 cells as described above. All mutations in recombinant viruses were confirmed by full-length sequencing of the entire RT coding region.

[4] = test system: HIV-1 RT N3481 with "classic" TAMs; conditions: N3481 present with "classic" TAMs; cited from earlier work
[5] = test system: HIVLAI containing the M41L/L210W/T215Y mutations (AZT^R HIVLAI) passaged in increasing concentrations of AZT; experiment: AZT susceptibility of virus passaged in increasing AZT, selection starting with AZT^R HIVLAI; single-cycle assay in P4/R5 cells; assay type: cell-based, HIV-1; conditions: for Fold-Resistance: compared to wild-type passaged without AZT
Procedure: as §1, §2, §3

[6] = test system: HIV-1 RT G335C with "classic" TAMs; conditions: G335C present with "classic" TAMs; cited from earlier work

What does the source list for Cc1cn([C@H]2C[C@H](N=[N+]=[N-])[C@@H](CO)O2)c(=O)[nH]c1=O [AZT, 3′-azido-3′-dideoxythymidine]?
reduction of AZT susceptibility [1]: 30 fold; increase in resistance (reduced susceptibility) (HIV-1 RT D549N): 12 fold; IC50 ([2]; Human immunodeficiency virus 1, MT2, passage 1, AZT concentration 0.5 μM, read-out: IC50): 200 nM; IC50 ([2]; Human immunodeficiency virus 1, MT2, passage 10, AZT concentration 0.5 μM, read-out: IC50): 300 nM; IC50 ([2]; Human immunodeficiency virus 1, MT2, passage 20, AZT concentration 0.5 μM, read-out: IC50): 700 nM; IC50 ([2]; Human immunodeficiency virus 1, MT2, passage 25, AZT concentration 1.0 μM, mutations: None, read-out: IC50): 700 nM; IC50 ([2]; Human immunodeficiency virus 1, MT2, passage 30, AZT concentration 2.0 μM, D67D/N, K70K/R, read-out: IC50): 3000 nM; IC50 ([2]; Human immunodeficiency virus 1, MT2, passage 35, AZT concentration 2.0 μM, D67N, K70R, read-out: IC50): 10000 nM; IC50 ([2]; Human immunodeficiency virus 1, MT2, passage 40, AZT concentration 4.0 μM, D67N, K70R, A371A/V, Q509Q/L, read-out: IC50): 10000 nM; IC50 ([2]; Human immunodeficiency virus 1, MT2, passage 55, AZT concentration 16 μM, D67N, K70R, T215T/I, A371A/V, Q509Q/L, read-out: IC50): 39000 nM; IC50 ([2]; Human immunodeficiency virus 1, MT2, passage 60, AZT concentration 32 μM, D67N, K70R, T215I, A371A/V, Q509L, read-out: IC50): 56000 nM; IC50 ([2]; Human immunodeficiency virus 1, MT2, passage 65, AZT concentration 32 μM, D67N, K70R, T215I/F, A371A/V, Q509L): ≥ 810000 nM; Fold-Resistance ([2]; passage 25, mutations: None): 4.1 fold; Fold-Resistance ([2]; passage 30, D67D/N, K70K/R): 26 fold; Fold-Resistance ([2]; passage 35, D67N, K70R): 66 fold; Fold-Resistance ([2]; passage 40, D67N, K70R, A371A/V, Q509Q/L): 86 fold; Fold-Resistance ([2]; passage 55, D67N, K70R, T215T/I, A371A/V, Q509Q/L): 255 fold; Fold-Resistance ([2]; passage 60, D67N, K70R, T215I, A371A/V, Q509L): 489 fold; Fold-Resistance ([3]; 67N/70R/215F/509L compared to wild-type): 128 fold; IC50 ([3]; Human immunodeficiency virus 1, P4/R5, 67N/70R/215F/509L, mean ± SD): 28 ± 17 µM; IC50 (Wild-type HIVLAI): 200 ± 100 nM; reduction of AZT susceptibility [4]: 35 fold; IC50 ([5]; Human immunodeficiency virus 1, P4/R5, passage 1, AZT concentration 25 μM): 21 µM; IC50 ([5]; Human immunodeficiency virus 1, P4/R5, passage 10, AZT concentration 50 μM): 34 µM; IC50 ([5]; Human immunodeficiency virus 1, P4/R5, passage 25, AZT concentration 100 μM, M41L, D67D/N, L210W, L214F, T215Y): 126 µM; IC50 ([5]; Human immunodeficiency virus 1, P4/R5, passage 30, AZT concentration 150 μM, M41L, D67D/N, L210W, L214F, T215Y): 181 µM; IC50 ([5]; Human immunodeficiency virus 1, P4/R5, passage 35, AZT concentration 150 μM, M41L, D67N, L210W, L214F, T215Y): > 810 µM; Fold-Resistance ([5]; passage 25, M41L, D67D/N, L210W, L214F, T215Y): 39 fold; Fold-Resistance ([5]; passage 30, M41L, D67D/N, L210W, L214F, T215Y): 62 fold; reduction of AZT susceptibility [6]: 30 fold
